“And” between values parts separate entries of the source, which are not always exact repeats. Identical values can stand only once. Inconclusive results and toxic doses are left out.
System: L1210 leukemia ip in BDF1 mice, survival T/C
Assay: NCI In Vivo Anticancer Drug Screen. Data for tumor model L1210 Leukemia (intraperitoneal) in B6D2F1 (BDF1) mice
Details: endpoint: mean survival time, higher = longer survival
In short: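 Each compound was tested against a transplantable tumor grown in mice. The endpoint was survival, with treated animals benchmarked against vehicle controls as a simple ratio.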

[1] = dose: 100.0 mg/kg/injection, schedule: Q01DX009 (ip), vehicle: saline
[2] = dose: 100.0 mg/kg/injection, schedule: Q04DX003 (ip), vehicle: saline
[3] = dose: 200.0 mg/kg/injection, schedule: Q01DX009 (ip), vehicle: saline
[4] = dose: 400.0 mg/kg/injection, schedule: Q01DX009 (ip), vehicle: saline
[5] = dose: 400.0 mg/kg/injection, schedule: Q04DX003 (ip), vehicle: saline
[6] = dose: 100.0 mg/kg/injection, schedule: Q01DX009 (ip), vehicle: Klucel (hydroxypropylcellulose) (HPC)
[7] = dose: 200.0 mg/kg/injection, schedule: Q01DX009 (ip), vehicle: Klucel (hydroxypropylcellulose) (HPC)
[8] = dose: 400.0 mg/kg/injection, schedule: Q01DX009 (ip), vehicle: Klucel (hydroxypropylcellulose) (HPC)
[9] = dose: 75.0 mg/kg/injection, schedule: Q01DX001 (ip), vehicle: saline
[10] = dose: 100.0 mg/kg/injection, schedule: Q01DX001 (ip), vehicle: saline

CC1(O)c2ccccc2-c2c1n([O-])c1ccccc1[n+]2=O (stereo unspecified)
T/C (dose: 100.0 mg/kg/injection, schedule: Q04DX003 (ip), vehicle: saline sonified): 111 % of control | T/C (dose: 200.0 mg/kg/injection, schedule: Q04DX003 (ip), vehicle: saline sonified): 100 % of control | T/C (dose: 400.0 mg/kg/injection, schedule: Q04DX003 (ip), vehicle: saline sonified): 89 % of control

CCOc1ccc(/C=N/NC(=O)c2ccc(N=NN(C)C)cc2)cc1
T/C (dose: 75.0 mg/kg/injection, schedule: Q04DX003 (ip), vehicle: Klucel (hydroxypropylcellulose) (HPC)): 94 % of control | T/C (dose: 150.0 mg/kg/injection, schedule: Q04DX003 (ip), vehicle: Klucel (hydroxypropylcellulose) (HPC)): 90 % of control | T/C (dose: 300.0 mg/kg/injection, schedule: Q04DX003 (ip), vehicle: Klucel (hydroxypropylcellulose) (HPC)): 87 % of control

O=C(Nc1ccc(C2=NCCN2)cc1)N1CCN(C(=O)Nc2ccc(C3=NCCN3)cc2)CC1
T/C (dose: 250.0 mg/kg/injection, schedule: Q01DX Z (ip), vehicle: water): 87 % of control

C[N+]1=C2CCCCC2=C(N)CC1
T/C (dose: 6.25 mg/kg/injection, schedule: Q01DX009 (ip), vehicle: saline sonified): 106 % of control | T/C (dose: 12.5 mg/kg/injection, schedule: Q01DX009 (ip), vehicle: saline sonified): 92 % of control | T/C (dose: 25.0 mg/kg/injection, schedule: Q01DX009 (ip), vehicle: saline sonified): 92 % of control

NC(CSCCc1ccccn1)C(=O)O (stereo unspecified)
T/C [1]: 107 % of control | T/C [2]: 101 % of control | T/C [3]: 104 % of control | T/C (dose: 200.0 mg/kg/injection, schedule: Q04DX003 (ip), vehicle: saline): 104 % of control | T/C [4]: 105 % of control | T/C [5]: 94 % of control

O=S(=O)(O)c1ccc2c(O)cc(S(=O)(=O)O)cc2c1
T/C [1]: 106 % of control | T/C [2]: 95 % of control | T/C [3]: 112 % of control | T/C [4]: 103 % of control | T/C [5]: 100 % of control

CCOC(=O)c1scnc1C
T/C [6]: 89 % of control | T/C (dose: 100.0 mg/kg/injection, schedule: Q04DX003 (ip), vehicle: Klucel (hydroxypropylcellulose) (HPC)): 95 % of control | T/C [7]: 95 % of control | T/C (dose: 200.0 mg/kg/injection, schedule: Q04DX003 (ip), vehicle: Klucel (hydroxypropylcellulose) (HPC)): 95 % of control | T/C [8]: 92 % of control | T/C (dose: 400.0 mg/kg/injection, schedule: Q04DX003 (ip), vehicle: Klucel (hydroxypropylcellulose) (HPC)): 95 % of control

O=C(O)/C=C/C(=O)NCCc1ccccc1
T/C [6]: 91 % of control | T/C [7]: 102 % of control | T/C [8]: 96 % of control

CN(C)CCN(C(=O)c1ccc(N)cc1)c1ccccc1
T/C (dose: 50.0 mg/kg/injection, schedule: Q01DX009 (ip), vehicle: saline): 91 % of control | T/C [1]: 109 % of control

Nc1c(C(=O)O)ccc2c1C(=O)c1ccccc1C2=O
T/C (dose: 25.0 mg/kg/injection, schedule: Q04DX003 (ip), vehicle: gum acacia): 103 % of control | T/C (dose: 50.0 mg/kg/injection, schedule: Q04DX003 (ip), vehicle: gum acacia): 100 % of control | T/C (dose: 100.0 mg/kg/injection, schedule: Q04DX003 (ip), vehicle: gum acacia): 103 % of control and 108 % of control | T/C (dose: 200.0 mg/kg/injection, schedule: Q04DX003 (ip), vehicle: gum acacia): 97 % of control

O=C(O)c1ccc2c(c1Sc1ccccc1)C(=O)c1ccccc1C2=O
T/C [9]: 104 % of control | T/C (dose: 150.0 mg/kg/injection, schedule: Q01DX001 (ip), vehicle: saline): 107 % of control | T/C (dose: 300.0 mg/kg/injection, schedule: Q01DX001 (ip), vehicle: saline): 91 % of control

CC(CNC1=NCCN1)c1cccc2ccccc12 (stereo unspecified)
T/C (dose: 50.0 mg/kg/injection, schedule: Q01DX009 (ip), vehicle: Klucel (hydroxypropylcellulose) (HPC)): 111 % of control | T/C [6]: 103 % of control | T/C [7]: 108 % of control

COc1cc([N+](=O)[O-])ccc1NC(=O)C(Br)C(Br)c1ccccc1 (stereo unspecified)
T/C (dose: 100.0 mg/kg/injection, schedule: Q01DX009 (ip), vehicle: other): 110 % of control | T/C (dose: 200.0 mg/kg/injection, schedule: Q01DX009 (ip), vehicle: other): 96 % of control | T/C (dose: 400.0 mg/kg/injection, schedule: Q01DX009 (ip), vehicle: other): 88 % of control

CCCCOc1ccc(/C=N/NC(=O)CNC(=O)Nc2cccc([N+](=O)[O-])c2)cc1
T/C (dose: 50.0 mg/kg/injection, schedule: Q01DX009 (ip), vehicle: saline with Tween-80): 96 % of control | T/C (dose: 100.0 mg/kg/injection, schedule: Q01DX009 (ip), vehicle: saline with Tween-80): 96 % of control | T/C (dose: 200.0 mg/kg/injection, schedule: Q01DX009 (ip), vehicle: saline with Tween-80): 93 % of control

COc1ccc2c3c1OC1C(=O)CCC4C(C2)N(C)CCC314 (stereo unspecified)
T/C [9]: 94 % of control

O=c1c2ccccc2[nH]c(=S)n1CCc1ccccn1
T/C (dose: 100.0 mg/kg/injection, schedule: Q04DX002 (ip), vehicle: Klucel (hydroxypropylcellulose) (HPC)): 100 % of control | T/C (dose: 200.0 mg/kg/injection, schedule: Q04DX002 (ip), vehicle: Klucel (hydroxypropylcellulose) (HPC)): 95 % of control | T/C (dose: 400.0 mg/kg/injection, schedule: Q04DX002 (ip), vehicle: Klucel (hydroxypropylcellulose) (HPC)): 89 % of control

COc1ccc(NC(=O)C(Br)C(Br)c2ccccc2)c(Cl)c1 (stereo unspecified)
T/C [6]: 102 % of control | T/C [7]: 97 % of control | T/C [8]: 96 % of control

CCOC(=O)C1(N)CCCC1
T/C (dose: 15.0 mg/kg/injection, schedule: Q01DX Z (ip), vehicle: carboxymethylcellulose (CMC)): 105 % of control | T/C (dose: 23.0 mg/kg/injection, schedule: Q01DX Z (ip), vehicle: carboxymethylcellulose (CMC)): 108 % of control | T/C (dose: 31.3 mg/kg/injection, schedule: Q01DX015 (ip), vehicle: saline): 96 % of control | T/C (dose: 35.0 mg/kg/injection, schedule: Q01DX Z (ip), vehicle: carboxymethylcellulose (CMC)): 117 % of control | T/C (dose: 62.5 mg/kg/injection, schedule: Q01DX015 (ip), vehicle: saline): 124 % of control | T/C (dose: 83.0 mg/kg/injection, schedule: Q01DX Z (ip), vehicle: carboxymethylcellulose (CMC)): 122 % of control | T/C (dose: 125.0 mg/kg/injection, schedule: Q01DX015 (ip), vehicle: saline): 150 % of control | T/C (dose: 125.0 mg/kg/injection, schedule: Q01DX Z (ip), vehicle: carboxymethylcellulose (CMC)): 122 % of control | T/C (dose: 188.0 mg/kg/injection, schedule: Q01DX Z (ip), vehicle: carboxymethylcellulose (CMC)): 110 % of control | T/C (dose: 250.0 mg/kg/injection, schedule: Q01DX015 (ip), vehicle: saline): 157 % of control | T/C (dose: 500.0 mg/kg/injection, schedule: Q01DX015 (ip), vehicle: saline): 118 % of control

Cn1c(N)c(N=Nc2ccc(S(N)(=O)=O)cc2)c(=O)n(C)c1=O
T/C [10]: 94 % of control | T/C (dose: 200.0 mg/kg/injection, schedule: Q01DX001 (ip), vehicle: saline): 102 % of control | T/C (dose: 400.0 mg/kg/injection, schedule: Q01DX001 (ip), vehicle: saline): 96 % of control

Cc1ccc(-c2nc(-c3nccc4ccccc34)oc2-c2ccccc2)cc1
T/C [6]: 103 % of control | T/C [7]: 95 % of control | T/C [8]: 95 % of control

CCCCCCCCNc1cc2c3c(c1)CCCN3CCC2
T/C (dose: 0.78 mg/kg/injection, schedule: Q01DX009 (ip), vehicle: alcohol): 110 % of control | T/C (dose: 1.56 mg/kg/injection, schedule: Q01DX009 (ip), vehicle: alcohol): 102 % of control | T/C (dose: 1.56 mg/kg/injection, schedule: Q04DX003 (ip), vehicle: alcohol): 102 % of control | T/C (dose: 3.12 mg/kg/injection, schedule: Q01DX009 (ip), vehicle: alcohol): 113 % of control | T/C (dose: 3.12 mg/kg/injection, schedule: Q04DX003 (ip), vehicle: alcohol): 108 % of control | T/C (dose: 6.25 mg/kg/injection, schedule: Q04DX003 (ip), vehicle: alcohol): 97 % of control | T/C (dose: 25.0 mg/kg/injection, schedule: Q04DX003 (ip), vehicle: alcohol): 88 % of control

CCOC(=O)/C(=C/c1ccc(C)cc1)P(=O)(OCC)OCC
T/C (dose: 50.0 mg/kg/injection, schedule: Q01DX001 (ip), vehicle: saline): 101 % of control | T/C [10]: 101 % of control

Source: PubChem BioAssay AID248 (DTP/NCI, 2004)
